# Key:
# Experiment in all cases: relative viability (nuclei count vs DMSO), 5 days (fraction); higher = more cells survive
# Shikonin + Olaparib = compound: CC(C)=CC[C@@H](O)C1=CC(=O)c2c(O)ccc(O)c2C1=O [Shikonin] + O=C(c1cc(Cc2n[nH]c(=O)c3ccccc23)ccc1F)N1CCN(C(=O)C2CC2)CC1 [Olaparib] (partner 8 µM)
# Outline: (§1)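 Cells from lung cancer lines were seeded into 1536-well plates and, one day later, dosed by pin tool. Treatments were either a single drug or a fixed dose of an anchor drug with five library-drug doses (not always all listed) in √10 steps. After 5 days, nuclei were stained in a one-step fixation (final 0.05% Triton X-100, 1% formaldehyde, 1 ug/ml Hoechst) and counted on 4× images, and relative viability is the treated-to-vehicle nuclei ratio, as the median of duplicate plates.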
# Shikonin + Luminespib = compound: CC(C)=CC[C@@H](O)C1=CC(=O)c2c(O)ccc(O)c2C1=O [Shikonin] + CCNC(=O)c1noc(-c2cc(C(C)C)c(O)cc2O)c1-c1ccc(CN2CCOCC2)cc1 [Luminespib] (partner 0.01 µM)
# Outline: as §1
# [1] = compound: CC(C)N(CCCNC(=O)Nc1ccc(C(C)(C)C)cc1)C[C@H]1O[C@@H](n2ccc3c(N)ncnc32)[C@H](O)[C@@H]1O + NC(=O)Nc1cc(-c2cccc(F)c2)sc1C(=O)N[C@H]1CCCNC1 [AZD7762] (partner 0.2 µM)
# Outline: as §1
# [2] = compound: CC(C)N(CCCNC(=O)Nc1ccc(C(C)(C)C)cc1)C[C@H]1O[C@@H](n2ccc3c(N)ncnc32)[C@H](O)[C@@H]1O + CS(=O)(=O)N1CCN(Cc2cc3nc(-c4cccc5[nH]ncc45)nc(N4CCOCC4)c3s2)CC1 [Pictilisib] (partner 1 µM)
# Outline: as §1
Cell Line,relative viability (Shikonin + Olaparib; first compound 0.01 µM),relative viability (Shikonin + Olaparib; first compound 0.1 µM),relative viability (Shikonin + Olaparib; first compound 0.3162 µM),relative viability (Shikonin + Olaparib; first compound 1 µM),relative viability (Shikonin + Luminespib; first compound 0.01 µM),relative viability (Shikonin + Luminespib; first compound 0.1 µM),relative viability (Shikonin + Luminespib; first compound 0.3162 µM),relative viability (Shikonin + Luminespib; first compound 1 µM),relative viability ([1]; first compound 0.08 µM),relative viability ([1]; first compound 0.253 µM),relative viability ([1]; first compound 2.53 µM),relative viability ([1]; first compound 8 µM),relative viability ([2]; first compound 0.08 µM),relative viability ([2]; first compound 0.253 µM),relative viability ([2]; first compound 0.8 µM),relative viability ([2]; first compound 2.53 µM),relative viability ([2]; first compound 8 µM),relative viability ([1]; first compound 0.8 µM)
NCI-H1975,0.815,0.836,0.955,0.715,0.178,0.27,0.248,0.167,0.701,0.686,0.642,0.53,0.289,0.268,0.197,0.271,0.289,
CAL-12T,0.767,0.849,0.789,0.639,0.473,0.415,0.257,0.42,0.572,0.617,0.668,0.565,0.316,0.388,0.398,0.459,0.47,0.665
NCI-H1623,,,,,0.513,0.552,0.609,0.368,,,,,,,,,,
HCC-44,0.963,1.01,1.07,0.993,0.814,1.14,1.28,1.23,1,1.1,1.04,0.929,0.542,0.644,0.488,0.734,0.578,0.897
EKVX,0.922,0.907,0.889,0.798,0.907,0.892,0.915,0.922,0.7,0.716,0.767,0.621,0.454,0.407,0.446,0.468,0.423,0.702
NCI-H1651,0.173,0.188,0.161,0.178,0.914,0.821,0.714,0.984,0.545,0.562,0.46,0.457,0.601,0.567,0.498,0.565,0.6,0.468
NCI-H1944,0.428,0.408,0.414,0.387,0.704,0.613,0.889,0.8,0.678,0.415,0.559,0.575,0.314,0.292,0.285,0.384,0.366,0.537
NCI-H1703,0.42,0.47,0.395,0.241,,,,,0.145,,0.105,0.114,0.223,0.247,0.257,0.244,0.24,0.137
Calu-6,0.6,0.695,0.556,0.356,,,,,,,,,0.929,0.91,0.971,0.922,0.882,
EBC-1,0.764,0.698,0.758,0.602,,,,,,,,,0.334,0.386,0.338,0.399,0.347,
NCI-H1993,0.92,0.943,1.12,1.32,1.08,0.834,0.834,0.531,0.659,,0.777,0.673,0.822,0.716,0.868,0.781,0.773,0.941
A-427,0.802,0.872,0.708,0.795,0.743,1.21,0.814,0.88,0.79,0.682,0.699,0.711,0.775,0.644,0.812,0.597,0.77,0.735
NCI-H2405,0.918,0.952,0.892,0.868,0.698,0.745,0.665,0.644,0.742,0.817,0.844,0.699,0.506,,0.358,0.46,0.429,0.689
NCI-H1355,0.811,0.812,0.786,0.776,0.724,0.795,0.79,0.714,0.703,0.68,0.75,0.695,0.376,0.337,,0.518,0.404,0.642
NCI-H358,0.622,0.619,0.539,0.219,0.467,0.369,0.246,0.334,0.454,0.538,0.565,0.491,0.356,0.335,0.317,0.359,0.342,0.569
SK-LU-1,0.45,0.413,0.441,0.468,0.212,0.215,0.198,0.187,,,,,0.593,0.506,0.621,0.662,0.538,
NCI-H23,0.36,0.248,0.317,0.313,0.226,0.196,0.227,0.143,0.252,,0.201,0.305,0.455,,0.478,0.568,0.454,0.226
HOP-62,0.267,0.455,0.379,0.676,0.975,0.763,0.96,0.914,0.681,0.51,0.777,0.322,0.723,0.413,0.655,0.776,0.342,0.517
HARA,0.557,0.7,0.492,0.574,0.864,0.841,0.775,0.936,0.344,0.244,0.655,0.299,0.506,0.479,0.344,0.311,0.31,0.334
PC-3 [JPC-3],1.08,1.16,1.33,1.27,0.727,0.677,0.665,0.622,0.759,0.81,0.794,0.872,0.757,0.677,0.658,0.656,0.727,
NCI-H1755,0.794,0.909,0.837,0.792,0.428,0.439,0.576,0.378,0.473,0.401,0.444,0.426,0.469,0.478,0.357,0.452,0.394,0.44
HCC-78,0.911,0.753,0.964,0.755,,,,,0.613,0.519,0.576,0.64,0.156,0.196,0.263,0.192,0.212,0.583

Cell Line,relative viability (Shikonin + Olaparib; first compound 0.01 µM),relative viability (Shikonin + Olaparib; first compound 0.1 µM),relative viability (Shikonin + Olaparib; first compound 0.3162 µM),relative viability (Shikonin + Olaparib; first compound 1 µM),relative viability (Shikonin + Luminespib; first compound 0.01 µM),relative viability (Shikonin + Luminespib; first compound 0.1 µM),relative viability (Shikonin + Luminespib; first compound 0.3162 µM),relative viability (Shikonin + Luminespib; first compound 1 µM),relative viability ([1]; first compound 0.08 µM),relative viability ([1]; first compound 0.253 µM),relative viability ([1]; first compound 2.53 µM),relative viability ([1]; first compound 8 µM),relative viability ([2]; first compound 0.08 µM),relative viability ([2]; first compound 0.253 µM),relative viability ([2]; first compound 0.8 µM),relative viability ([2]; first compound 2.53 µM),relative viability ([2]; first compound 8 µM),relative viability ([1]; first compound 0.8 µM)
IA-LM,0.993,0.891,0.893,0.885,,,,,,,,,0.27,0.347,0.447,0.398,0.378,
NCI-H441,0.647,0.637,0.626,0.531,0.349,0.339,0.371,0.323,1.04,1.13,1.07,1.33,0.442,0.423,0.361,0.539,0.47,
NCI-H322M,0.806,0.757,0.671,0.88,0.942,0.855,0.82,0.847,0.529,0.541,0.51,0.803,0.54,0.478,0.566,0.44,0.57,0.751
NCI-H520,0.323,0.368,0.283,0.295,0.253,0.216,0.21,0.207,,,,,0.273,0.247,0.215,0.282,0.301,
COR-L23,0.401,0.306,0.307,0.24,0.848,0.675,0.767,0.357,,,,,0.678,0.606,0.662,0.778,0.735,
NCI-H2126,0.953,1.14,0.943,0.92,1.01,1.05,0.966,0.891,0.913,1.01,0.988,0.965,0.499,0.476,0.415,0.529,0.48,0.956
COR-L 105,0.672,0.796,0.558,0.606,0.787,0.758,0.83,0.74,,,,,0.413,0.301,0.408,0.369,0.404,
SW 1573,0.661,0.557,0.321,0.0736,0.494,0.201,0.232,0.0929,,,,,0.656,0.438,0.546,0.55,0.585,
NCI-H2228,0.987,0.808,0.681,0.272,0.153,0.177,0.146,0.163,,,,,0.483,,0.462,0.478,0.28,
NCI-H2009,0.774,0.691,0.624,0.497,1.1,1.16,1,0.876,,,,,0.817,0.663,0.826,0.976,0.854,
NCI-H661,0.847,0.879,0.73,0.646,0.951,1.06,0.932,0.858,,,,,0.542,0.281,0.428,0.376,0.422,
NCI-H2342,0.43,0.392,0.38,0.383,0.763,0.65,0.752,0.702,0.454,0.535,0.505,0.397,,,,,,0.455
NCI-H1299,0.969,0.986,0.976,0.832,,,,,,,,,0.944,0.834,0.912,0.76,0.726,
NCI-H1650,0.877,0.787,0.732,0.718,0.195,0.198,0.175,0.193,,,,,0.55,0.52,,0.56,0.624,
NCI-H2023,0.478,0.559,0.622,0.437,0.969,0.851,0.982,0.59,,,,,0.265,0.215,0.219,0.333,0.217,
SW 900,1.05,0.776,0.917,0.717,0.192,0.173,0.207,0.155,0.718,0.529,0.564,0.554,,,,,,
SK-MES-1,0.887,0.665,0.723,0.495,0.969,0.677,0.833,0.698,,,,,0.359,0.363,0.304,0.33,0.342,
NCI-H1648,0.846,,1.08,0.816,,,,,0.656,0.812,0.645,0.707,,,,,,0.525
NCI-H522,0.645,0.614,0.597,0.491,1.09,0.917,1.29,1.31,0.891,0.794,0.785,0.886,,,,,,0.806
HCC-366,0.423,0.428,0.33,0.404,,,,,0.208,0.237,0.104,0.249,0.128,0.157,0.117,0.181,0.194,0.277
A549,0.351,0.454,0.305,0.302,,,,,,,,,0.513,0.501,0.53,0.52,0.469,
NCI-H1563,,,,,0.575,0.465,0.542,0.453,,,,,0.678,0.607,0.616,0.679,0.636,

# — the supplement of paper PMC10307832
